Experimental data taken from patent publication US20210113529A1, “MEDICINE FOR PREVENTING OR TREATING OPHTHALMIC DISEASE ASSOCIATED WITH ENHANCED INTRAOCULAR NEOVASCULARIZATION AND/OR INTRAOCULAR VASCULAR PERMEABILITY” (KYOTO UNIVERSITY, priority 2018, published 2021).

Assays:
[1] = test system: laser-induced choroidal neovascularization (CNV) model; experiment: Laser-induced CNV model: fluorescein angiography (FA) grade; assay type: in vivo, mice; settings: 0.03 mg/kg or 0.3 mg/kg orally once daily, each group; Day 14 after laser irradiation
Method: A Mydrin-P ophthalmic solution (Santen Pharmaceutical Co., Ltd., Mydrin is a trademark) was dropped into the right eye of 8-week-old mice (Japan SLC, Inc., C56BL/6J strain) to cause mydriasis. A solution obtained by diluting a 7:1 mixed anesthetic solution of ketamine and xylazine 10-fold with physiological saline was administered at 10 mL/kg into the femoral muscle. After that, a 0.1% Hyalein (trademark) ophthalmic solution (Santen Pharmaceutical Co., Ltd.) was dropped into the eye so as to prevent the eyeball from drying. […]
Sampling was performed on the 14th day after the laser irradiation. The mice were anesthetized with 10 mL/kg of a solution obtained by diluting a 7:1 mixed anesthetic solution of ketamine and xylazine 10-fold with physiological saline, and then 0.1 mL of a 10-fold dilution of fluorescein (Alcon Japan Ltd.) was administered into the tail vein of the mice, followed by fluorescence fundus photography using Micron 4 (Phoenix Research Laboratories, Inc. Pleasanton, Calif., USA).
In FIG. 1 (a), Day 0 indicates images taken on the day of the laser irradiation, and Day 14 indicates images taken on the 14th day. In addition, for the image of each group on Day 14, an FA grade was determined for each laser irradiation site in accordance with grade criteria shown in Table 1 to evaluate the leakage of a fluorescent dye from a neovascularization site. […]

[2] = test system: laser-induced choroidal neovascularization (CNV) model; experiment: Laser-induced CNV model: area of CNV in choroidal flat mount; assay type: in vivo, mice; settings: Day 14
Method: After fluorescence fundus photography had been performed as described above in the section (1), 0.5 mL of fluorescein isothiocyanate dextran (FITC-dextran; 20 mg/mL, Sigma-Aldrich) was administered into the tail vein of the mice. The mice were euthanized by cervical dislocation, and the eyeball was extirpated. The extirpated eyeball was fixed in a 4% paraformaldehyde phosphate buffer for 12 hours. After that, the cornea and lens were excised under a microscope, and the remaining vitreous artery was removed with forceps. Further, the retina was removed, and the choroid was notched 8 points and embedded with Fluoromount (Diagnostic BioSystems) in a flat state to generate a choroidal flat mount specimen. The choroidal flat mount was photographed using a confocal laser scanning microscope (FLUOVIEW FV10i; Olympus, Tokyo, Japan). Next, on the basis of the photographed image, the CNV was encircled using analysis software OLYMPUS FLUOVIEW FV10i (Olympus), and the area thereof was determined as the area of CNV (μm^2). All analyses were performed in a blinded manner. After fluorescence fundus photography had been performed as described above in the section (1), a choroidal flat mount specimen was generated by the same method as in Example 1. The choroidal flat mount was photographed using an all-in-one fluorescence microscope (BZ-X710; Keyence, Osaka, Japan). Next, on the basis of the photographed image, the CNV was encircled using image editing software Image J, and the area thereof was determined as the area of CNV (μm^2). All analyses were performed in a blinded manner.

## C[C@H](Oc1ccc(-c2nc(-c3ccc4[nH]cnc4c3)no2)cc1C(F)(F)F)C(F)(F)F.Cl [Compound 1, 5-{5-[3-(trifluoromethyl)-4-{[(2S)-1,1,1-trifluoropropan-2-yl]oxy}phenyl]-1,2,4-oxadiazol-3-yl}-1H-benzimidazole monohydrochloride]
[1]
  FA grade as compared to the vehicle group: significantly lowered
[2]; 0.03 mg/kg orally once daily
  area of CNV: a decrease in area of CNV
[2]; 0.3 mg/kg orally once daily
  area of CNV: a significant decrease was found
  reduction ratio of the area of CNV: 34%
